Numbered stars: 1 amine (or outer) side, 2 acyl side, 3 side chain; on linkers, the order of the positions; unused ones are H or OH. Square brackets hold non-standard residues; d marks the D form. Peptide text beside a SMILES is read from it. ξ: configuration not given here. Gly(N-piperonyl) = O=C(O)CNCc1ccc2c(c1)OCO2; X1 = CC(c1ccccc1)N(CC(=O)[*:2])[*:1]; Nlys = NCCCCNCC(=O)O; ξK = NCCCCC(N)C(=O)O; ξM = CSCCC(N)C(=O)O; Nme = COCCNCC(=O)O
How the values were obtained:
Format in all cases: cell-based
H358 and HCC4017 cells = experiment: ALDEFluor staining of PCS2-bound and PCS2-unbound fractions
Procedure: To confirm that the peptoid-bound fraction was CSCs, a subset of PCS2-bound and PCS2-unbound fractions from H358 cells were generated and stained with the ALDEFLuor kit, which produces green fluorescence when the ALDH protein is active in a cell, and DAPI, and then analyzed them under a fluorescence microscope. […] An equal number of PCS2-bead sorted cells from the H358 and HCC4017 cell lines were also treated with the Aldefluor kit and their relative fluorescence was evaluated using a spectrophotometer (FIG. 7B & C).

H358 cells [1] = experiment: Clonogenicity assay under treatment; conditions: 500 cells/well, 30 and 100 μM, 2 weeks
Procedure: To further validate that PCS2D1 inhibiting CSCs, the effects of PCS2D1 against a stem-cell-associated phenotype were studied with regards to the capacity to form colonies from a single cell by using the clonogenicity assay. About 300 cells were plated onto 35 mm cell culture plates with either 0, 1, 10, 30, or 100 μM of PCS2D1, and allowed to grow for 2 weeks. After staining with crystal violet, both the number of colonies and the overall morphology of the colonies were evaluated.
The clonogenicity assay was repeated with H358 cells, 500 cells/well, using 0, 10, 30 and 100 μM PCS2 treatment over 2 weeks. […] To confirm that this was due to the specific targeting on CSCs, the clonogenicity assay was performed again over 8 days, with the treatment performed from day 7 to 8 instead, to allow the colonies to establish. This was done alongside control cells plated on chamber slides and then grown under the same conditions.

ALDH+ H358 CSCs = experiment: On-bead binding of sorted ALDH+ and ALDH− H358 cells to PCS2-carrying beads
Procedure: (§1) On-bead binding assay: 50 mg of peptoid-carrying tentagel beads or 1.3×10^6 of peptoid-carrying magnetic beads were equilibrated in 2 mL RPMI containing 5% FBS and 3% BSA (Sigma) for 1 hour by shaking. The beads can then be equilibrated with 5×10^6 of each cancer cell type listed above in 2 mL RPMI containing 5% FBS and 1% BSA at room temperature for 15-60 minutes for binding. The cell-bound beads are then pulled down with a magnet and washed with RPMI to cleanly harvest bound cells. Unbound cells were collected separately for further confirmations.
To confirm the binding specificity of PCS2 to CSCs, sorted ALDH+ H358 CSCs (red stained) and ALDH− H358 cells (green stained) were exposed to PCS2-carrying beads. […] The same assay was repeated after allowing these CSC population to grow for 2 weeks, where by then the CSC percentage in the ALDH+ sorted population became low, the number of cells bound was very low (FIG. 4E), indicating PCS2 recognizes a unique target specific for CSCs, but not other cancer cells.

H358 cells [2] = experiment: Colony formation assay of bead-bound, unbound and unsorted fractions; conditions: 2 weeks of growth, crystal violet
Procedure: (§2) A colony formation assay was performed on the untreated H358 cells and PCS2-bound and PCS2-unbound fractions to further confirm that the cells bound by PCS2 were CSCs. About 500 cells from each of the three fractions were plated into […] wells and grown for 2 weeks. The resulting colonies were then stained with crystal violet.
as §2, with “300-500” for “500”, “cell group” for “the three fractions”, “weeks or until colonies were visible by eye.” for “weeks.”, “violet for approximately 5 minutes and colonies were counted using the MOESM software program, and confirmed though microscopic counting.” for “violet.”
It was determined that the presence of plectin contributes to colony formation and wound healing potential of H358 cells. Plectin antibody-coated magnetic-bead bound fractions form a higher number of colonies compared to unbound and unseparated fraction in the clonogenicity assay in H358 cells The clonogenecity after plectin knockdown was then tested in H358, H460, and H2073 cells (FIG. 25C, 25D). Knockdown of plectin decreases colony formation in H358, H460 and H2073 cells. Knockdown of plectin leads to a decrease in mobility and scratch healing in H358 cells. […]

H358 cells [3] = experiment: Magnetic-bead pull-down assay
Procedure: as §1
To confirm the binding specificity of PCS2 to CSCs, CSCs isolated from H358 cells and normal mesenchymal stem cells (MSCs) were exposed to PCS2-carrying beads as described in Example 3, and then separated by magnet into peptoid-bound and peptoid-unbound fractions (FIG. 19A). […] RNA from both bound and unbound fractions was harvested and analyzed by RT-qPCR to determine the relative expression of several known CSC biomarkers in each fraction was assessed, including expression of ALDH1A3 (FIG. 19B), CD133 (FIG. 19C), CD44 (FIG. 19D), and SOX2 (FIG. 19E). […]
To further evaluate this plectin-CSC connection, it was confirmed that CSCs can be isolated through cell surface plectin via a PCS2-independent approach. […] Next the mRNA levels of two known CSC biomarkers was analyzed on these cell groups by RT-QPCR, along with plectin (PLEC). […]

## COCCNCC(=O)N(CCCCN)CC(=O)N(CC(=O)N(CC(=O)N(CCCCN)CC(=O)NC(CCCCN)C(=O)N[C@H](CCCCN)C(=O)NC(CCSC)C(N)=O)C(C)c1ccccc1)Cc1ccc2c(c1)OCO2 (some centres unmarked) [PCS2] (H-[Nme][Nlys][Gly(N-piperonyl)][X1][Nlys][ξK][dK][ξM]-NH2)
H358 and HCC4017 cells; H358, fluorescence microscope, vs unbound or untreated fractions
  ALDEFluor green fluorescence of PCS2-bound fraction: significantly stronger green fluorescence
H358 and HCC4017 cells; H358 and HCC4017, spectrophotometer
  relative ALDEFluor fluorescence of PCS2-bead sorted cells: fluorescence was higher in bound cells
H358 cells [1]
  colonies formed: Significantly fewer colonies formed
ALDH+ H358 CSCs; ALDH+ sorted population after 2 weeks of growth
  number of cells bound to PCS2-beads: very low
ALDH+ H358 CSCs; freshly sorted cells
  binding of PCS2-beads to sorted ALDH+ (red) vs ALDH− (green) H358 cells: only bound significantly to the red CSCs
H358 cells [2]
  number of colonies from bead-bound fraction vs unbound or unsorted fractions: significantly higher number of colonies
H358 cells [3]; bound vs unbound fractions
  binding of PCS2 beads to CSCs from H358 vs normal MSCs: bound significantly higher on CSCs from H358 than normal MSCs
H358 cells [3]; coated magnetic beads
  cells isolated (pull-down) from H358: 28-38%

— US11865157B2, “Compositions and methods of targeting cancer stem cells” (University of Houston System, priority 2016, dated 2024)
